# From patent US11648247B1, “Compositions and methods for the treatment of presbyopia” (Lenz Therapeutics, Inc., priority 2021, dated 2023)
# Assays:
# [1] = test system: presbyopic subjects; details: pilocarpine with oxymetazoline, US 2014/0113946; cited from earlier work
# [2] = test system: pupil; details: cited from earlier work
# [3] = test system: eye; details: brimonidine 0.20% w/v (Alphagan®) twice daily; cited from earlier work
# [4] = Stability of aceclidine in storage (HPLC); type: physicochemical; details: for Stability of Aceclidine: same composition
# Experimental: 20 samples of the above composition were divided evenly and stored at 25° C. and 4° C. Prior to storage, initial concentrations of aceclidine were measured using […] (“HPLC”). The amount of aceclidine in each solution was calculated by the area under the principal peak compared to a reference solution of aceclidine. Samples were then subject to storage for 3 months. Aceclidine measurements were taken at 1, 2 and 3 months.
# [5] = test system: presbyopic subjects; assay: Near and distance visual acuity after topical instillation (lines of improvement, onset, duration, efficacy index); type: in vivo, human
# Experimental: As aceclidine is an […], the clinical effectiveness may vary with different ratios. For the present studies a nearly exact 50:50 ratio of stereoisomers was measured as best determined by polarimetry.
# In brief, the score is calculated by multiplying the lines of improvement in near visual acuity by the number of hours the improvement lasts. For example, a score of: 5 is equal to +1 lines of improvement in near visual acuity for 5 hours; 10 is equal to +1.5 lines of improvement for 6.7 hours; 15 is equal to 2 lines of improvement for 7.5 hours; 20 is equal to 2.5 lines of improvement for 8 hours; 25 is equal to 3+ lines of improvement for 8.3 hours and 35 is equal to 3.75+ lines of improvement for 9 hours.
# The subject instilled 2 drops of the above formulation in each eye as 1 single drop each eye and a second drop after 5 minutes.
# 2 subjects instilled 2 drops each of the above formulation in each eye about 5 minutes apart.
# A 1.75% aceclidine in saline solution was formulated. One drop was instilled into each eye of a presbyopic subject. The visual acuity of the subject was tested both before and after instillation using a LogMAR chart.
# Formulation AB#1 was instilled via 2-drops with a 5-minute interval in the eyes of a person. […] All near and distance vision with over-refraction was red-green adjusted to emmetropia. Near vision at 1 hour post instillation was measured. Further, duration to 20.40 vision was measured.
# [6] = test system: eye; assay: Comfort and tolerability after instillation (stinging, redness, ciliary spasm/brow ache, blur, dimming); type: in vivo, human; details: for night vision / dimming: pH 7.5
# Experimental: Ciliary spasms scores correspond to the following: 0=no discomfort; 0.5=slight sting; 1=noticeable squeeze/discomfort; 2=pain for less than 30 minutes; 3=pain for 1 hour or more; and 4=severe to intolerable pain.
# [7] = post instillation, 1.75% aceclidine in saline solution
compound,measurement,setting,value
CC[C@@H]1C(=O)OC[C@@H]1Cc1cncn1C [pilocarpine],time until full effect became diminished,[1],about four hours
Brc1c(NC2=NCCN2)ccc2nccnc12 [brimonidine],tachyphylaxis of pupil modulation,"[2]; brimonidine 0.20% w/v topically for night vision, within four weeks of use",~100 % of treated subjects
same,duration of miotic effect,"[2]; brimonidine, typically",about four hours
same,transiently induced miosis,[2]; brimonidine,1.0-2.0 mm
same,rebound redness,[3],25 % of patients
CC(=O)OC1CN2CCC1CC2 (racemic) [aceclidine],Stability of Aceclidine,"[4]; 4° C., 1 month",93%
same,Stability of Aceclidine,"[4]; 4° C., 2 months",92%
same,Stability of Aceclidine,"[4]; 4° C., 3 months",88%
same,Stability of Aceclidine,"[4]; 4° C., Initial",100%
same,Stability of Aceclidine,"[4]; 25° C., 1 month",92%
same,Stability of Aceclidine,"[4]; 25° C., 2 months",75%
same,Stability of Aceclidine,"[4]; 25° C., 3 months",50%
same,Stability of Aceclidine (amount vs reference),"[4]; 25° C., Initial, 1.50% aceclidine, 0.042% tropicamide, 5.5% polyoxyl 40 stearate, 2.5% mannitol, 3 mM citrate, pH 4.75",100%
same,near vision,"[5]; FIG. 2, aceclidine in carrier: 5.5% HPβCD, 0.75% CMC, 0.25% NaCl, 0.01% BAK",< 20.20
same,LogMAR score at 1-meter distance,"[5]; after instillation, 1.75% aceclidine in saline solution",−0.12 LogMAR
same,LogMAR score at 45 centimeters distance,"[5]; after instillation, 1.75% aceclidine in saline solution, one drop each eye, 0.50 prior",0.22 LogMAR
same,Noticeable degradation in reading distance acuity began,[5]; [7],4 h
same,improved reading distance acuity maintained,[5]; [7],3.5 h
same,"Stinging, lasting","[6]; 1.35% w/v aceclidine, Example 2",2 to 5 s
tropicamide,night vision / dimming,[6]; 0.035% w/v tropicamide in 1.55% w/v aceclidine composition,slight dimming
same,night vision / dimming,[6]; 0.042% w/v tropicamide in 1.55% w/v aceclidine composition,normal indoor night vision
same,effect on brow ache,[6]; tropicamide 0.01% w/v with aceclidine,slightly reduce brow ache
same,effect on brow ache,[6]; tropicamide 0.014% w/v with aceclidine,reduce brow ache
same,effect on brow ache,[6]; tropicamide 0.021% w/v with aceclidine,further reduce brow ache
same,effect on brow ache,[6]; tropicamide 0.030% w/v with aceclidine,further reduce brow ache
same,effect on brow ache,[6]; tropicamide from 0.028% to 0.060% w/v with aceclidine,completely eliminate brow ache
same,effect on brow ache,[6]; tropicamide from 0.04% to about 0.07% w/v with aceclidine,completely eliminate brow ache
